# In patent US20020115661A1, “Method for treating chronic obstructive pulmonary disease” (priority 2000, published 2002):
# Read-outs that look alike come from different tables or passages of the source.
# Tests used:
# [1] = system: acute hypoxia-induced pulmonary hypertension; assay: Pulmonary hypertension in response to acute hypoxia in rats; format: in vivo, rat
# Description: Exposure to hypoxia produces an acute pulmonary hypertensive response in the rat. […] The hypothesis has since been tested through blockade of the hypertensive response with several ET antagonists. The antihypertensive dose of CI-1034 was determined in response to acute hypoxia.
# Heparinized plasma samples were collected 10 minutes after the final MPAP measurement was made.
# [2] = system: bET-1 pressor response (ETA receptors); assay: Blockade of bET-1 induced pressor responses in rats; format: in vivo, rat
# Source text: Vehicle-treated rats responded to the bET-1 challenge with peak increases in mean arterial pressure (MAP) of 58±2 mm Hg (N=7); baseline MAP was 82±5 mm Hg.
# [3] = Solubility; format: physicochemical
# Description: The compound acts as a base, raising the pH of the water to a measured value of 8.9 for a 100 mg/mL solution.
# CI-1034 is insoluble in hexane and isopropanol.
# [4] = Oral rising single-dose pharmacokinetic study in healthy subjects; format: in vivo, human
# [5] = biological target: T1, human ETB receptors (Homo sapiens, UniProt P24530); assay: [125I]ET-3 binding to recombinant human ETB receptors (CHO cell membranes); settings: [125I]ET-3; CHO cell membranes with cloned human ETB receptors; read-out: ETB, IC50
# T1 construct: expressed in transfected cells; host or cells: CHO cells
# T1 sequence (P24530 27-442): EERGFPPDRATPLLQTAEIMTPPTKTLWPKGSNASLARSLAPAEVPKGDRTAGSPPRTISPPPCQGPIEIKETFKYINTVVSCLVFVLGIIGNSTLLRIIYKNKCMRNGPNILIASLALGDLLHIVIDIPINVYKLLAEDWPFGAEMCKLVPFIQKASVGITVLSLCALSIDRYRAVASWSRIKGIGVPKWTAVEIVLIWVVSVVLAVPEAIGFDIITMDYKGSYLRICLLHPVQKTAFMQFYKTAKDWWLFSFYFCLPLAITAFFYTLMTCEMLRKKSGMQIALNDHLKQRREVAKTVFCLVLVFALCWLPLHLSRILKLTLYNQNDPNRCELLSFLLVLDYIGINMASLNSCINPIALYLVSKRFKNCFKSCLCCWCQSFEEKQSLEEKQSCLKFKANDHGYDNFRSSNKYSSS
# [6] = Dissociation constant by potentiometric titration in water; format: physicochemical; settings: carboxylic acid group, read-out: apparent pKa
# [7] = Plasma CI-1034 concentrations in anesthetized dogs; format: in vivo, dog; settings: for concentration at 5 min: plasma, intravenous
# Description: Each animal received each treatment and served as its own control, with 7 days between treatments. […] Pulmonary function parameters were evaluated for 60 minutes after each dose, and included minute volume, respiratory rate, resistance, compliance, peak inspiratory and expiratory volumes, and tidal volume. Indirect blood pressure measurements were made periodically throughout the pulmonary data collection period since endothelin receptor antagonists are known to induce hypotension.
# Plasma concentration in this dog 5 minutes postdose was 1960 μg/mL.
# [8] = biological target: T2, human ETA receptors (Homo sapiens, UniProt P25101); assay: Saturation binding of [125I]ET-1, Scatchard analysis (Ltk- cell membranes)
# T2 construct: expressed in transfected cells; host or cells: Ltk- cells (mouse fibroblast, thymidine kinase deficient)
# T2 sequence (P25101 21-427): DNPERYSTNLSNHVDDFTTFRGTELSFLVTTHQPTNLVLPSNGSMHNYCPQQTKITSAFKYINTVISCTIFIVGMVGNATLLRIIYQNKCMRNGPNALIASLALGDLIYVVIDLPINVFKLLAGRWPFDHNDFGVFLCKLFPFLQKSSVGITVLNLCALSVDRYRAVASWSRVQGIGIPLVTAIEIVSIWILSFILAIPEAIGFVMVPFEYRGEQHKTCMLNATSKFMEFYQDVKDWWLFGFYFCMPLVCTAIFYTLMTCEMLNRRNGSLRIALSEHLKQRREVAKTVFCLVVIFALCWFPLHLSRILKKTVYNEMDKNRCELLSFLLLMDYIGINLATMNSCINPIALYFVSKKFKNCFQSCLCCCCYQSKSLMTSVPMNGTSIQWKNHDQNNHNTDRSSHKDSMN
# [9] = biological target: T3, dog ETB receptors (Canis lupus familiaris, UniProt P56497); assay: [125I]ET-3 binding, membranes from dog cerebellum
# T3 construct: from tissue
# T3 sequence (P56497 27-442): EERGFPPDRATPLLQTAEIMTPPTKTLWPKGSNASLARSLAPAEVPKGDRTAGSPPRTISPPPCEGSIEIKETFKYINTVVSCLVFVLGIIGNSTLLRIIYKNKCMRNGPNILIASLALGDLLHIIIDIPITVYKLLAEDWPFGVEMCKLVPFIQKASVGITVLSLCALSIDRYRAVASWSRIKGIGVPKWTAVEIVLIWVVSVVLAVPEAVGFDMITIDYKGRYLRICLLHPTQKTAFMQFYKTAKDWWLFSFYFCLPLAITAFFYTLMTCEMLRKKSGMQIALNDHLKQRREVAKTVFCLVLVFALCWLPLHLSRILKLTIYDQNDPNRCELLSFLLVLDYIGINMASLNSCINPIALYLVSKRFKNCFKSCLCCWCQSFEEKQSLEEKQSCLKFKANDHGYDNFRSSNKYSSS
# Source text: Relative binding activities are given below in TABLE 3.
compound,measurement,setting,value
"CCc1cc(C2=C(C(=O)[O-])N(c3ccccc3C(F)(F)F)S(=O)(=O)c3ccccc32)cc2c1OCO2.[K+] [CI-1034, 4-(7-Ethyl-1,3-benzodioxol-5-yl)-2-[2-(trifluoromethyl)phenyl]-2H-1 ,2-benzothiazine-3-carboxylic acid 1,1-dioxide monopotassium salt]",ED50,"[1]; Rattus norvegicus, rats, PO, relative to hypoxic control, read-out: ED50, inhibition of acute pulmonary hypertensive response",0.8 mg/kg
same,EC50,"[1]; Rattus norvegicus, simple Emax model, acute hypoxia, read-out: plasma concentration predicted to produce half-maximal effect",0.03 ± 0.03 µg/mL
same,reduction of peak pulmonary hypertensive response at 4 hours,"[1]; rats, 0.3 mg/kg PO 30 minutes before hypoxia (10% O2)",34%±1%
same,reduction of peak pulmonary hypertensive response at 4 hours,"[1]; rats, 3.0 mg/kg PO 30 minutes before hypoxia (10% O2)",70%±3%
same,predicted maximal antihypertensive effect,"[1]; simple Emax model, acute hypoxia",81%±23%
same,peak pressor response to bET-1 challenge (MAP increase),[2]; 30 mg/kg oral gavage 24 hours before bET-1 1 nmol/kg IV,35±7 mm Hg
same,inhibition of the bET-1 pressor response compared to vehicle,"[2]; 30 mg/kg oral gavage 24 hours before challenge, p<0.05",39%
same,solubility,[3]; 0.05 M pH 4 acetate buffer,very slightly soluble
same,solubility,[3]; 0.05 M pH 7.4 potassium phosphate buffer,very slightly soluble
same,solubility,[3]; 0.1N HCl,insoluble
same,pH of aqueous solution,[3]; 100 mg/mL solution in water,8.9
same,concentration after 24 hours,"[3]; 0.5 M pH 7.4 potassium phosphate buffer, after 24 hours",approximately 0.8 mg/mL
same,concentration reached on rapid dissolution,"[3]; 0.5 M pH 7.4 potassium phosphate buffer, initial",approximately 13 mg/mL
same,solubility,[3]; acetonitrile,slightly soluble
same,solubility,[3]; chloroform,very slightly soluble
same,solubility,[3]; dichloromethane,very slightly soluble
same,solubility,[3]; dimethylsulfoxide,freely soluble
same,solubility,[3]; ethanol,sparingly soluble
same,solubility,[3]; hexane,insoluble
same,solubility,[3]; isopropanol,insoluble
same,solubility,[3]; methanol,freely soluble
same,solubility,[3]; tetrahydrofuran,slightly soluble
same,solubility,[3]; water,freely soluble
same,Renal excretion of unchanged CI-1034,[4]; Study 1034-001,< 3 % of the dose
same,half-life,"[4]; human, plasma, oral, 400-mg dose, read-out: additional elimination half-life (converted)",~13 h
same,half-life,"[4]; human, plasma, single oral doses, Study 1034-001, read-out: elimination half-life (t½)",2 to 4 h
same,Tmax,"[4]; human, plasma, single oral doses, Study 1034-001, read-out: time to maximal plasma concentrations (tmax)",1 to 3 h
same,Cmax and AUC(0-∞) with increasing dose,[4]; single oral doses,slightly more than proportional increases
same,IC50,[5],1600 nM
same,pKa,[6],3.9
same,plasma concentration versus dose,[7]; anesthetized dogs,increased proportionally with dose
same,Plasma Concentration,"[7]; dog, 180 mg/kg, 5 minutes postdose, N = 1",1960 µg/mL
same,exposure relative to projected human therapeutic Cmax of […],"[7]; dogs, 30 and 60 mg/kg, plasma 5 minutes postdose",at least 940 times
same,concentration at 5 min,"[7]; dog, 30 mg/kg, 5 minutes postdose",301 µg/mL
same,concentration at 5 min,"[7]; dog, 60 mg/kg, 5 minutes postdose",574 µg/mL
same,Ki,"[8]; Scatchard analysis, read-out: Ki (inhibitor constant of unlabeled antagonist)",0.51 nM
same,effect on Bmax (maximal [125I]ET-1 binding),[8]; saturation binding,without significantly affecting
same,effect on apparent Kd of [125I]ET-1 binding,[8]; saturation binding,reduced
same,IC50,[9],329 nM
